# According to patent US9115159B2, “Phosphate compounds, a process for their preparation and pharmaceutical compositions containing them” (LES LABORATOIRES SERVIER, priority 2013, dated 2015):
# Where two headings read alike, the source gives them in different places.
# Columns and labels:
# [1] = Solubility in aqueous medium buffered to physiological pH (phosphate 0.33M, pH 7.4); assay type: physicochemical
# Experimental: The solubilities of the compounds were also measured in a medium buffered to physiological pH (cf. Table 3).
# human Caco-2 cells = experiment: In vitro test on human Caco-2 cells, cellular transport A to B; assay type: in vitro ADME; conditions: prodrug incubated, 120 minutes; for Yield (experiment yield), the drug after incubation of the prodrug / Fabs (predicted absorbed fraction in humans), the drug after incubation of the prodrug: corresponding drug measured; for Fabs (predicted absorbed fraction in humans), the drug after incubation of the prodrug / Papp, compound measured: the prodrug itself: A to B; for Fabs (predicted absorbed fraction in humans), the drug after incubation of the prodrug: 1 or 3 μM; for Papp, compound measured: the prodrug itself: deposited apically at 1 or 3 μM; for Yield (experiment yield), compound measured: the prodrug itself: total amount found at the end versus incubated
# Experimental: The cellular transport from A to B (Apical to Basolateral) of the phosphate compounds of formula (I) and the compounds of formula (I′) (corresponding drugs) is studied in human Caco-2 cells. Each compound is deposited apically at 1 or 3 μM (in duplicate) and then incubated for 120 minutes.
# Several samples are taken during the experiment; • apically: immediately after deposition (t=0) and at 120 minutes • basolaterally: at the end of the experiment (120 minutes)
# The concentrations of the phosphate compound (prodrug) and/or of its hydroxylated homologue (drug) are determined by liquid chromatography coupled with mass spectrometric detection (LC-MS/MS). The limit of quantification for both entities is 2 ng/mL.
# The apparent permeability (Papp) and the predicted absorbed fraction (Fabs) in humans are calculated for the prodrug, for the drug after incubation of the prodrug and for the drug after incubation of the drug (Hubatsch et al, Nat Protoc. 2007; 2(9), 2111-2119).
# The experiment yield, which corresponds to the ratio (in percent) of the total amount of compound found at the end of the experiment versus that incubated, is also calculated.
# [2] = Pharmacokinetic profile / in vivo conversion after oral administration to SCID mice (plasma, LC-MS/MS); set-up: species or system female SCID mice; conditions: aqueous formulation (1M sodium carbonate)
# Experimental: The pharmacokinetic profile of the phosphate compounds of formula (I) is evaluated in a lipid formulation and in aqueous solution in female SCID mice. This is compared to the pharmacokinetic profile of compounds of formula (I′) in a lipid formulation. More specifically, 4-[{[3-(6-{[(3S)-3-(morpholin-4-ylmethyl)-3,4-dihydroisoquinolin-2(1H)-yl]-carbonyl}-1,3-benzodioxol-5-yl)-5,6,7,8-tetrahydroindolizin-1-yl]carbonyl}(phenyl)-amino]phenyl disodium phosphate (also referred to as the compound of Example 1) was tested and compared to N-(4-hydroxyphenyl)-3-{6-[((3S)-3-(4-morpholinylmethyl)-3,4-dihydro-2(1H)-isoquinolinyl)carbonyl]-1,3-benzodioxol-5-yl}-N-phenyl-5,6,7,8-tetrahydro-1-indolizine carboxamide (also referred to as the drug from Example 1).
# The compound of Example 1 is prepared in a mixture of anhydrous ethanol/polyethylene glycol 300/water (10/40/50, v/v/v) intended for administration by the p.o. route. The study is carried out in 2 groups of SCID mice to which the compound of Example 1 is administered under the following conditions: • Group 1: 3 mg/kg p.o. (gavage, 10 mL/kg), • Group 2: 25 mg/kg p.o. (gavage, 10 mL/kg).
# Blood samples are taken at the following points in time (3 samples per animal and 3 animals for each point in time): 0.25 hr, 0.5 hr, 1 hr, 2 hrs, 6 hrs and 24 hrs after oral administration.
# The compound of Example 1 is also administered by the oral route in an aqueous medium to SCID mice, under the following conditions: • Group 1: 30 mg/kg p.o. dissolved in 1 mM sodium carbonate solution (gavage, 10 mL/kg), • Group 2: 100 mg/kg p.o. in water (gavage, 10 mL/kg).
# Blood samples are taken at the following points in time (3 animals for each point in time and 1 sample per animal): 0.25 hr, 0.5 hr, 1 hr, 2 hrs, 4 hrs, 6 hrs and 24 hrs after oral administration.
# For all formulations of the compound of Example 1, the blood thereby collected is centrifuged and the plasma is transferred to tubes containing 1M hydrochloric acid. The plasma concentrations of the phosphate compound (prodrug) and its hydroxylated homologue (drug) are determined simultaneously using a method of liquid chromatography coupled with mass spectrometric detection (TFC-LC-MS/MS). The limit of detection for both entities is 0.5 ng/mL.
# The drug from Example 1 is prepared in a mixture of anhydrous ethanol/polyethylene glycol 300/water (10/40/50, v/v/v) intended for administration by the p.o. route. The study is carried out in several groups of SCID mice to which the drug from Example 1 is administered under the following conditions: • Group 1: 3 mg/kg p.o. (gavage, 10 mL/kg), • Group 2: 30 mg/kg p.o. (gavage, 10 mL/kg), • Group 3: 25 mg/kg p.o. (gavage, 10 mL/kg), • Group 4: 100 mg/kg p.o. (gavage, 10 mL/kg).
# Blood samples are taken at the following points in time (3 animals for each point in time and 3 samples per animal for Groups 1-2 and 1 sample per animal for Groups 3 and 4): • p.o.: before administration and then 0.25 hr, 0.5 hr, 0.75 hr, 1 hr, 2 hrs, 4 hrs, 6 hrs, 8 hrs, 16 hrs and 24 hrs after oral administration at 3 and 30 mg/kg, • p.o.: 0.5 hr, 2 hrs, 6 hrs, 16 hrs and 24 hrs after oral administration at 25 mg/kg and 0.5 hr, 1 hr, 2 hrs, 6 hrs, 16 hrs, 30 hrs and 48 hrs after oral administration at 100 mg/kg.
# The plasma from the blood samples collected after administration of the lipid formulations of the drug from the compound of Example 1 are analysed by liquid chromatography coupled with mass spectrometric detection. The limit of quantification of the drug from the compound of Example 1 is less than or equal to 0.5 ng/mL.
# Non-compartmental pharmacokinetic analysis is carried out on the mean values of the plasma concentrations of the compounds tested. […]
# [3] = phosphate 0.33M, pH = 7.4, 10 μM
# [4] = phosphate 0.33M, pH = 7.4, 20 μM
# [5] = phosphate 0.33M, pH = 7.4, 50 μM
# [6] = phosphate 0.33M, pH = 7.4, 100 μM
# [7] = Example 20 administered 25 mg/kg p.o.
# [8] = Example 25 administered 3 mg/kg p.o.
# [9] = Example 25 administered 25 mg/kg p.o.
Structure (SMILES),"Solubility at 10 μM [1, 3]","Solubility at 20 μM [1, 4]","Solubility at 50 μM [1, 5]","Solubility at 100 μM [1, 6]","Yield (experiment yield), the drug after incubation of the prodrug (human Caco-2 cells)","Fabs (predicted absorbed fraction in humans), the drug after incubation of the prodrug (human Caco-2 cells)","Papp, compound measured: the prodrug itself (human Caco-2 cells)","Yield (experiment yield), compound measured: the prodrug itself (human Caco-2 cells)",further results
"[2H]C([2H])([2H])n1cc(N(C(=O)c2cc(-c3cc(Cl)ccc3C(=O)N3Cc4ccccc4C[C@H]3CN3CCOCC3)n(C)c2C)c2ccc(O)cc2)cn1 [Drug from Example 19, 5-(5-Chloro-2-{[(3S)-3-(morpholin-4-ylmethyl)-3,4-dihydroisoquinolin-2(1H)-yl]carbonyl}phenyl)-N-(4-hydroxyphenyl)-1,2-dimethyl-N-[1-(trideuteriomethyl)-1H-pyrazol-4-yl]-1H-pyrrole-3-carboxamide]",Soluble,Soluble,Soluble,Insoluble,,,,,
"C[C@@H]1Cc2ccccc2CN1C(=O)c1cc2c(cc1-c1cc(C(=O)N(c3ccc(OP(=O)([O-])[O-])cc3)c3cnc4c(ccn4C)c3)c3ccccn13)OCO2.[Na+].[Na+] [Example 4, 4-[{[3-(6-{[(3R)-3-Methyl-3,4-dihydroisoquinolin-2(1H)-yl]carbonyl}-1,3-benzodioxol-5-yl)indolizin-1-yl]carbonyl}(1-methyl-1H-pyrrolo[2,3-b]pyridin-5-yl)amino]phenyl disodium phosphate]",,,,,Yield (%) = 38,Fabs (%) = 69,Papp (10^−6 cm/s) = 0.33,Yield (%) = 1.3,
"C[C@@H]1Cc2ccccc2CN1C(=O)c1cc2c(cc1-c1cc(C(=O)N(c3ccncc3)c3ccc(OP(=O)([O-])[O-])cc3)c3ccccn13)OCO2.[Na+].[Na+] [Example 5, 4-[{[3-(6-{[(3R)-3-Methyl-3,4-dihydroisoquinolin-2(1H)-yl]carbonyl}-1,3-benzodioxol-5-yl)indolizin-1-yl]carbonyl}(pyridin-4-yl)amino]phenyl disodium phosphate]",,,,,Yield (%) = 78,Fabs (%) = 86,Papp (10^−6 cm/s) = 0.26,Yield (%) = 1.2,
"[2H]C([2H])([2H])n1cc(N(C(=O)c2cc(-c3cc(Cl)ccc3C(=O)N3Cc4ccccc4C[C@H]3CN3CCOCC3)n(C)c2C)c2ccc(OP(=O)([O-])[O-])cc2)cn1.[Na+].[Na+] [Example 19, 4-({[5-(5-Chloro-2-{[(3S)-3-(morpholin-4-ylmethyl)-3,4-dihydroisoquinolin-2(1H)-yl]carbonyl}phenyl)-1,2-dimethyl-1H-pyrrol-3-yl]carbonyl}[1-(trideuteriomethyl)-1H-pyrazol-4-yl]amino)phenyl disodium phosphate]",,,,,,,,,Solubility at 10 μM [1]: Soluble; Solubility at 20 μM [1]: Soluble; Solubility at 50 μM [1]: Soluble; Solubility at 100 μM [1]: Soluble

# More lines, main results first:
"Solubility at 10 μM [1, 3]","Solubility at 20 μM [1, 4]","Solubility at 50 μM [1, 5]","Solubility at 100 μM [1, 6]","Yield (experiment yield), the drug after incubation of the prodrug (human Caco-2 cells)","Fabs (predicted absorbed fraction in humans), the drug after incubation of the prodrug (human Caco-2 cells)","Papp, compound measured: the prodrug itself (human Caco-2 cells)","Yield (experiment yield), compound measured: the prodrug itself (human Caco-2 cells)",Structure (SMILES),further results
Soluble,Soluble,Soluble,Soluble,Yield (%) = 100,Fabs (%) = 16,,Yield (%) = 0.94,"Cc1c(N(C(=O)c2cc(-c3cc(Cl)ccc3C(=O)N3Cc4ccccc4C[C@H]3CN3CCOCC3)n(C)c2C)c2ccc(OP(=O)([O-])[O-])cc2)cc(C#N)n1C.[Na+].[Na+] [Example 20, 4-[{[5-(5-Chloro-2-{[(3S)-3-(morpholin-4-ylmethyl)-3,4-dihydroisoquinolin-2(1H)-yl]carbonyl}phenyl)-1,2-dimethyl-1H-pyrrol-3-yl]carbonyl}(5-cyano-1,2-dimethyl-1H-pyrrol-3-yl)amino]phenyl disodium phosphate]","Cmax, compound measured: Example 20 ([2]; Example 20 administered 3 mg/kg p.o., BLQ: below the limit of quantification): Cmax (ng/mL) = BLQ; AUCt, compound measured: Example 20 [2, 7]: AUCt (ng · h/mL) = 106; Cmax, compound measured: Example 20 [2, 7]: Cmax (ng/mL) = 127; Tmax, compound measured: Example 20 [2, 7]: Tmax (h) = 0.25"
Soluble,Soluble,Soluble,Soluble,Yield (%) = 48,Fabs (%) = 20,,Yield (%) = 33,"Cc1c(N(C(=O)c2cc(-c3cc(F)ccc3C(=O)N3Cc4ccccc4C[C@H]3CN3CCOCC3)n(C)c2C)c2ccc(OP(=O)([O-])[O-])cc2)cc(C#N)n1C.[Na+].[Na+] [Example 25, 4-[(5-Cyano-1,2-dimethyl-1H-pyrrol-3-yl){[5-(5-fluoro-2-{[(3S)-3-(morpholin-4-ylmethyl)-3,4-dihydroisoquinolin-2(1H)-yl]carbonyl}phenyl)-1,2-dimethyl-1H-pyrrol-3-yl]carbonyl}amino]phenyl disodium phosphate]","AUCt, compound measured: Example 25 [2, 8]: AUCt (ng · h/mL) = 14; Cmax, compound measured: Example 25 [2, 8]: Cmax (ng/mL) = 17; Tmax, compound measured: Example 25 [2, 8]: Tmax (h) = 1.0; AUCt, compound measured: Example 25 [2, 9]: AUCt (ng · h/mL) = 114; Cmax, compound measured: Example 25 [2, 9]: Cmax (ng/mL) = 106; Tmax, compound measured: Example 25 [2, 9]: Tmax (h) = 1.0"
